Experimental data taken from PubChem BioAssay AID1963973 (Molecular Pharmacology Branch, DTP, NCI, 2024).

Test system: 883617-216-R-J1-PDC tumor spheroids, viability
Test: Anticancer human tumor 883617-216-R-J1-PDC patient-derived bladder carcinoma cell line growth inhibition [PI3K]
Conditions: spheroids with HUVEC and MSC; for IC50: curve of first compound; for viability, T/C: stronger effect = lower value
In short: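 Stroma-containing spheroids: tumor line, pooled-donor HUVEC, hMSC. Treatments: targeted agents with PI3K inhibitors. Dosing: clinically relevant, half-log spacing, 10 microM ceiling without known Cmax. Read-out: cell viability.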

[1] = second compound 0.0316 µM, first compound 0.0316 µM
[2] = second compound 0.0316 µM, first compound 0.1 µM
[3] = second compound 0.0316 µM, first compound 0.316 µM
[4] = second compound 0.0316 µM, first compound 1 µM
[5] = second compound 0.0316 µM, first compound 3.16 µM
[6] = second compound 0.0316 µM, first compound 10 µM
[7] = second compound 0.1 µM, first compound 0.0316 µM
[8] = second compound 0.1 µM, first compound 0.1 µM
[9] = second compound 0.1 µM, first compound 0.316 µM
[10] = second compound 0.1 µM, first compound 1 µM
[11] = second compound 0.1 µM, first compound 3.16 µM
[12] = second compound 0.1 µM, first compound 10 µM
[13] = second compound 0.316 µM, first compound 0.0316 µM
[14] = second compound 0.316 µM, first compound 0.1 µM
[15] = second compound 0.316 µM, first compound 0.316 µM
[16] = second compound 0.316 µM, first compound 1 µM
[17] = second compound 0.316 µM, first compound 3.16 µM
[18] = second compound 0.316 µM, first compound 10 µM
[19] = second compound 1 µM, first compound 0.0316 µM
[20] = second compound 1 µM, first compound 0.1 µM
[21] = second compound 1 µM, first compound 0.316 µM
[22] = second compound 1 µM, first compound 1 µM
[23] = second compound 1 µM, first compound 3.16 µM
[24] = second compound 1 µM, first compound 10 µM
[25] = second compound 0.00316 µM, first compound 0.0316 µM
[26] = second compound 0.00316 µM, first compound 0.1 µM
[27] = second compound 0.01 µM, first compound 0.0316 µM
[28] = second compound 0.01 µM, first compound 0.1 µM
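Also: spheroids exposed to agents for 7 days before the viability read.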

CNC(=O)c1ccc(N2C(=S)N(c3ccc(C#N)c(C(F)(F)F)c3)C(=O)C2(C)C)cc1F + CC(Nc1ncnc2nc[nH]c12)c1cc2cccc(Cl)c2c(=O)n1-c1ccccc1
IC50 (second compound 0.0316 µM): > 10000 nM
IC50 (second compound 0.1 µM): > 10000 nM
IC50 (second compound 0.316 µM): > 10000 nM
IC50 (second compound 1 µM): > 10000 nM
IC50 (second compound 3.16 µM): > 10000 nM
IC50 (second compound 10 µM): 3250 nM
viability, T/C [1]: 91.8%
viability, T/C [2]: 94.3%
viability, T/C [3]: 92.8%
viability, T/C [4]: 96.2%
viability, T/C [5]: 83.9%
viability, T/C [6]: 89%
viability, T/C [7]: 89.4%
viability, T/C [8]: 93.2%
viability, T/C [9]: 90.2%
viability, T/C [10]: 103%
viability, T/C [11]: 89.8%
viability, T/C [12]: 67%
viability, T/C [13]: 88.1%
viability, T/C [14]: 98.9%
viability, T/C [15]: 84.9%
viability, T/C [16]: 88.6%
viability, T/C [17]: 82.7%
viability, T/C [18]: 70.2%
viability, T/C [19]: 84.5%
viability, T/C [20]: 90.8%
viability, T/C [21]: 83%
viability, T/C [22]: 89.8%
viability, T/C [23]: 73.3%
viability, T/C [24]: 79.7%
viability, T/C (second compound 3.16 µM, first compound 0.0316 µM): 70.6%
viability, T/C (second compound 3.16 µM, first compound 0.1 µM): 78.5%
viability, T/C (second compound 3.16 µM, first compound 0.316 µM): 72.7%
viability, T/C (second compound 3.16 µM, first compound 1 µM): 76.4%
viability, T/C (second compound 3.16 µM, first compound 3.16 µM): 69.2%
viability, T/C (second compound 3.16 µM, first compound 10 µM): 55.6%
viability, T/C (second compound 10 µM, first compound 0.0316 µM): 50.8%
viability, T/C (second compound 10 µM, first compound 0.1 µM): 53.1%
viability, T/C (second compound 10 µM, first compound 0.316 µM): 50.5%
viability, T/C (second compound 10 µM, first compound 1 µM): 47.4%
viability, T/C (second compound 10 µM, first compound 3.16 µM): 50.6%
viability, T/C (second compound 10 µM, first compound 10 µM): 38.9%

CC(C)n1nc(-c2ccc3oc(N)nc3c2)c2c(N)ncnc21 + COc1c(OCCCN2CCOCC2)ccc2c3n(c(=NC(=O)c4cnc(N)nc4)nc12)CCN3
IC50 (second compound 0.00316 µM): 20.1 nM
IC50 (second compound 0.01 µM): 10.4 nM
IC50 (second compound 0.0316 µM): < 0.316 nM
IC50 (second compound 0.1 µM): < 0.316 nM
IC50 (second compound 0.316 µM): < 0.316 nM
IC50 (second compound 1 µM): < 0.316 nM
viability, T/C (second compound 0.00316 µM, first compound 0.000316 µM): 82.6%
viability, T/C (second compound 0.00316 µM, first compound 0.001 µM): 73.9%
viability, T/C (second compound 0.00316 µM, first compound 0.00316 µM): 79.2%
viability, T/C (second compound 0.00316 µM, first compound 0.01 µM): 63.6%
viability, T/C [25]: 40.7%
viability, T/C [26]: 17.4%
viability, T/C (second compound 0.01 µM, first compound 0.000316 µM): 64.9%
viability, T/C (second compound 0.01 µM, first compound 0.001 µM): 61.8%
viability, T/C (second compound 0.01 µM, first compound 0.00316 µM): 62.2%
viability, T/C (second compound 0.01 µM, first compound 0.01 µM): 49.2%
viability, T/C [27]: 33.4%
viability, T/C [28]: 14.4%
viability, T/C (second compound 0.0316 µM, first compound 0.000316 µM): 40.3%
viability, T/C (second compound 0.0316 µM, first compound 0.001 µM): 34.1%
viability, T/C (second compound 0.0316 µM, first compound 0.00316 µM): 34.9%
viability, T/C (second compound 0.0316 µM, first compound 0.01 µM): 28.6%
viability, T/C [1]: 18.5%
viability, T/C [2]: 11.5%
viability, T/C (second compound 0.1 µM, first compound 0.000316 µM): 14.7%
viability, T/C (second compound 0.1 µM, first compound 0.001 µM): 15.1%
viability, T/C (second compound 0.1 µM, first compound 0.00316 µM): 15.1%
viability, T/C (second compound 0.1 µM, first compound 0.01 µM): 13.2%
viability, T/C [7]: 8.07%
viability, T/C [8]: 4.79%
viability, T/C (second compound 0.316 µM, first compound 0.000316 µM): 5.33%
viability, T/C (second compound 0.316 µM, first compound 0.001 µM): 5.54%
viability, T/C (second compound 0.316 µM, first compound 0.00316 µM): 5.8%
viability, T/C (second compound 0.316 µM, first compound 0.01 µM): 5.35%
viability, T/C [13]: 4.04%
viability, T/C [14]: 3.54%
viability, T/C (second compound 1 µM, first compound 0.000316 µM): 2.62%
viability, T/C (second compound 1 µM, first compound 0.001 µM): 3.45%
viability, T/C (second compound 1 µM, first compound 0.00316 µM): 3.33%
viability, T/C (second compound 1 µM, first compound 0.01 µM): 3.45%
viability, T/C [19]: 3.43%
viability, T/C [20]: 2.69%

CC(Cn1ccc(-c2ccc(C#N)c(Cl)c2)n1)NC(=O)c1cc(C(C)O)[nH]n1 (stereo unspecified) + CC(Nc1ccc2c(c1)OCCn1cc(N3C(=O)OCC3C(F)F)nc1-2)C(N)=O
IC50 (second compound 0.00316 µM): > 10000 nM
IC50 (second compound 0.01 µM): > 10000 nM
IC50 (second compound 0.0316 µM): > 10000 nM
IC50 (second compound 0.1 µM): < 31.6 nM
IC50 (second compound 0.316 µM): < 31.6 nM
IC50 (second compound 1 µM): < 31.6 nM
viability, T/C [25]: 86.4%
viability, T/C [26]: 85.9%
viability, T/C (second compound 0.00316 µM, first compound 0.316 µM): 84.1%
viability, T/C (second compound 0.00316 µM, first compound 1 µM): 80.4%
viability, T/C (second compound 0.00316 µM, first compound 3.16 µM): 90.8%
viability, T/C (second compound 0.00316 µM, first compound 10 µM): 73.1%
viability, T/C [27]: 84%
viability, T/C [28]: 74.7%
viability, T/C (second compound 0.01 µM, first compound 0.316 µM): 80.1%
viability, T/C (second compound 0.01 µM, first compound 1 µM): 84%
viability, T/C (second compound 0.01 µM, first compound 3.16 µM): 90.5%
viability, T/C (second compound 0.01 µM, first compound 10 µM): 86.5%
viability, T/C [1]: 64.2%
viability, T/C [2]: 79.4%
viability, T/C [3]: 79.1%
viability, T/C [4]: 80.3%
viability, T/C [5]: 74.8%
viability, T/C [6]: 67.4%
viability, T/C [7]: 46.6%
viability, T/C [8]: 49.3%
viability, T/C [9]: 55.1%
viability, T/C [10]: 48.9%
viability, T/C [11]: 43.7%
viability, T/C [12]: 44.9%
viability, T/C [13]: 25.3%
viability, T/C [14]: 27.9%
viability, T/C [15]: 27.9%
viability, T/C [16]: 26.9%
viability, T/C [17]: 26.8%
viability, T/C [18]: 23.2%
viability, T/C [19]: 15.8%
viability, T/C [20]: 15%
viability, T/C [21]: 17%
viability, T/C [22]: 14.9%
viability, T/C [23]: 17.4%
viability, T/C [24]: 17.3%
